# Assay results taken from patent publication US10519177B2, “Heterocyclic compounds and uses thereof” (Plexxikon Inc., priority 2013, dated 2019).
# Like-named read-outs stand apart in the source and are kept apart here.
# Tests used:
# [1] = system: MV-4-11 cells; assay: Oncology cell growth assay MV-4-11 (CellTiter Glo); format: cell-based; conditions: Homo sapiens, MV4-11, 72 h, read-out: Cell activity (IC50 μM) MV-4-11 3d-Growth
# From the text: Published bromodomain inhibitors JQ1 and iBET 151 have shown activity in variety of cancer cells such leukemia and lymphoma, multiple myeloma cells, NUT midline carcinoma and glioblastoma cells (Dawson M A et al. 2011; Delmore J E 2011; Chen Z et al. 2013; Filippakopoulos P et al. 2010; Mertz J A et al. 2011; Ott C J et al. 2012). In this study, we test compounds in different cancer cell lines. MV-4-11 and MOLM-13 are AML cell lines harboring a MLL-AF4 and MLL-AF9 translocation, respectively. MM.1S is a multiple myeloma cell line. SK-N-AS, IMR-32 and SK-N-BE(2) are neuroblastoma cell lines. IMR-32 and SK-N-BE(2) cell lines harbor MYCN amplifications.
# MV-4-11, MM.1S, IMR-32, SK-N-AS and SK-N-BE(2) were obtained from ATCC (IL, USA) and MOLM-13 were purchased from DSMZ (Braunschweig, German). Cells are cultured as recommended by their sources. For growth inhibition studies 3000 cells are seeded in wells of a 96-well plate in 75 μL of culture media. After several hours, growth media containing compounds of formula (I) are added to the wells. Compound at a maximal concentration of 5 mM was serially diluted 1:3 for a total of 8 point titration with DMSO as a control. A 1 μL aliquot of each dilution point is added to 249 μL growth media and 75 μL is added to each well containing cells, providing 10 μM compound at the maximum concentration point. The final concentration of DMSO in all wells is 0.2%. Cells are incubated for 72 hours, and 25 μL of CellTiter Glo Reagent (Promega GA, USA) is added to each well. Plates are shaken for approximately 10 minutes and chemiluminescent signal is read on Tecan microplate reader. The measured luminescence correlates directly with cell number.
# All data is normalized to the mean of eight DMSO high control wells on each plate. A four parameter curve fit of the following formula was then applied: Y=a+(b−a)/(1+(x/c)^d) Where ‘a’ is the minimum, ‘b’ is the maximum, ‘c’ is the pIC50 and ‘d’ is the Hill slope. […] Myc Reporter Assay
# [2] = biological target: BRD4-BD12 (1-477) (Homo sapiens (Human), UniProt O60885); assay: Alphascreen binding assay BRD4-BD12; conditions: BRD4(1 2) H4; read-out: Biochemical activity (IC50 μM) BRD4(1 2) H4
# Method: Binding of compounds of formula (I) with bromodomain 2, 3 4 was assessed using Alphascreen binding assay. The inhibition of the interaction between bromodomain and its acetylated target protein (Filippakopoulos P et al. 2012) was measured quantitatively using recombinant BRD proteins, an acetylated Histone 4 peptide and AlphaScreen™ technology. In absence of inhibition the BRD protein bound to AlphaScreen™ nickel chelate acceptor beads can interact with the acetylated Histone 4 peptide which is immobilized by the AlphaScreen™ Streptavidin coated beads. This interaction brings donor and acceptor beads in proximity. The close proximity allows the singlet oxygen produced by laser excitation of the donor beads to reach the acceptor beads and generate a luminescence signal.
# Recombinant human bromodomains containing the N-terminal bromodomain (BRD2-BD1 (71-194), BRD3-BD1 (24-144) and BRD4-BD1 (44-164)) or dual bromodomains (BRD4-BD12 (1-477), BRD4-BD12 (1-472)) were prepared and purified as described in protein expression and purification session. The peptide is human Histone H41-21K5AcK8AcK12AcK16Ac-Biotin (Anaspec CA, USA).
# Protocol for BRD2, BRD3 and BRD4 assay: All components are prepared in buffer composed of 50 mM HEPES pH 7.5, 100 mM NaCl, 0.01% bovine serum albumin (“BSA”), 0.01% Triton X-100, 2 mM dithiothreitol (“DTT”). 7 μL of Bromodomain protein and 7 μL of peptide are added to wells containing 1 μL of various concentrations of test compounds of formula (I) or DMSO vehicle in an Alphaplate (PerkinElmer GA, USA) and incubated for 1 hour at room temperature. 4 μL donor and acceptor bead mixture is then added with final concentrations of 7.5 μg/ml. 30 minutes after bead addition, Alpha signal is read on the Envision spectrometer (λEx 680 nm, λEm 520-620 nm). Final concentrations of bromodomain proteins and peptide are as shown below.
# All data was normalized to the mean of 16 high and 16 low control wells on each plate. A four parameter curve fit of the following formula was then applied: Y=a+(b−a)/(1+(x/c)^d) Where ‘a’ is the minimum, ‘b’ is the maximum, ‘c’ is the pIC50 and ‘d’ is the Hill slope. Protein Expression and Purification
# Recombinant human bromodomains containing the N-terminal bromodomain (BRD2-BD1 (71-194), BRD3-BD1 (24-144) and BRD4-BD1 (44-164)) or dual bromodomains (BRD4-BD12 (1-477), BRD4-BD12 (1-472)) were expressed in E. coli cells (in a modified pET vector) with an N-terminal six-His tag and purified using a combination of both IMAC (Ni-affinity) and size exclusion chromatography steps.
# Recombinant BRD proteins were expressed using the E. coli strain BL21-CodonPlus (DE3) (Agilent Technologies CA, USA). Cells were grown in Terrific Broth (TB) media to an OD600 of 1.2 at 37° C. at which temperature was reduced to 25° C., protein was induced with 1.0 mM ispropyl-β-D-thiogalactopyranoside (“IPTG”) for 12-18 hours and harvested by centrifugation at 8000×g for 20 minutes. Cells were re-suspended in 0.1M K2PO4 pH 8.0, 250 mM NaCl, 10% Glycerol, 0.75% NP-40, 25 mM Imidazole, 5 mM beta-mercaptoethanol (“BME”) with 0.2 mg/ml Lysosyme, 2.0 mM phenylmethanesulfonyl fluoride (“PMSF”), 25 μg/ml DNAse I, incubated on ice for 30 minutes and lyzed with a cell disruptor (MicroFluidics MA, USA). The lysate was clarified by centrifugation at 20,000×g for 2 hours. The protein was captured with Ni-NTA resin (Life Technologies, USA). Contaminating proteins were washed off with 25 mM Tris-HCl pH 8.3, 250 mM NaCl, 12% Glycerol and 50 mM Imidazole. Following 3× wash steps, protein was eluted step wise using a 50 mM HEPES pH 7.5, 500 mM NaCl and 400 mM Imidazole. The protein was further purified using Gel Filtration column 26/600 Superdex 200 (GE Biosciences NJ, USA) in 50 mM HEPES pH 7.5, 250 mM NaCl. The protein was aliquoted and flash-frozen in liquid Nitrogen.
# [3] = system: bromodomain; assay: at least one of the bromodomain cell assays of Example 57; format: cell-based; conditions: at least one of the bromodomain cell assays described in Example 57; read-out: IC50 in at least one of the bromodomain cell assays
Structure (SMILES),"IC50 ([1]; MV-4-11, 3d growth)",IC50 [2],IC50 [1],IC50 [3]
"CC[C@@H](c1ccccn1)n1cc(-c2ccc(C3(C(=O)OC)CC3)cc2)c2ncc(-c3c(C)noc3C)cc21 [P-0968, methyl 1-[4-[6-(3,5-dimethylisoxazol-4-yl)-1-[(1S)-1-(2-pyridyl)propyl]pyrrolo[3,2-b]pyridin-3-yl]phenyl]cyclopropanecarboxylate]",< 1 µM,< 1 µM,,
"Cc1noc(C)c1-c1cnc2c(-c3ccccc3C(=O)O)cn(CC3CCC(F)(F)CC3)c2c1 [P-0398, 2-[1-[(4,4-difluorocyclohexyl)methyl]-6-(3,5-dimethylisoxazol-4-yl)pyrrolo[3,2-b]pyridin-3-yl]benzoic acid]",,< 1 µM,< 1 µM,
"COC(=O)c1ccc(-c2cn(Cc3ncccc3F)c3cc(-c4c(C)noc4C)cnc23)cc1 [P-0948, methyl 4-[6-(3,5-dimethylisoxazol-4-yl)-1-[(3-fluoro-2-pyridyl)methyl]pyrrolo[3,2-b]pyridin-3-yl]benzoate]",< 1 µM,< 1 µM,,
"Cc1noc(C)c1-c1cnc2c(-c3ccc(C4(N)CC4)cc3)cn(CC3CCC(F)(F)CC3)c2c1 [P-0911, 1-[4-[1-[(4,4-difluorocyclohexyl)methyl]-6-(3,5-dimethylisoxazol-4-yl)pyrrolo[3,2-b]pyridin-3-yl]phenyl]cyclopropanamine]",< 1 µM,< 1 µM,,
"CC[C@@H](c1ccccn1)n1cc(-c2ccc(CC(=O)O)cc2)c2ncc(-c3c(C)noc3C)cc21 [P-0986, 2-[4-[6-(3,5-dimethylisoxazol-4-yl)-1-[(1S)-1-(2-pyridyl)propyl]pyrrolo[3,2-b]pyridin-3-yl]phenyl]acetic acid]",< 1 µM,< 1 µM,,
"CC[C@@H](c1ccccn1)n1cc(-c2ccc(C(=O)O)c(F)c2)c2ncc(-c3c(C)noc3C)cc21 [P-1022, 4-[6-(3,5-dimethylisoxazol-4-yl)-1-[(1S)-1-(2-pyridyl)propyl]pyrrolo[3,2-b]pyridin-3-yl]-2-fluoro-benzoic acid]",< 1 µM,< 1 µM,,
"Cc1noc(C)c1-c1cnc2c(-c3ccc(CC(=O)O)cc3)cn(C(c3ccccn3)C3CCC3)c2c1 (stereo not drawn) [P-1015, 2-[4-[1-[cyclobutyl(2-pyridyl)methyl]-6-(3,5-dimethylisoxazol-4-yl)pyrrolo[3,2-b]pyridin-3-yl]phenyl]acetic acid]",< 1 µM,< 1 µM,,
"Cc1noc(C)c1-c1cnc2c(-c3ccc(C(=O)O)cc3)cn([C@H](c3ccccn3)C3CC3)c2c1 [P-0990, 4-[1-[(S)-cyclopropyl(2-pyridyl)methyl]-6-(3,5-dimethylisoxazol-4-yl)pyrrolo[3,2-b]pyridin-3-yl]benzoic acid]",< 1 µM,< 1 µM,,
"Cc1noc(C)c1-c1cnc2c(c1)c(P(=O)(c1ccccc1)c1ccccc1)cn2-c1ccc(C(=O)O)cc1 [P-0951, 4-[5-(3,5-dimethylisoxazol-4-yl)-3-diphenylphosphoryl-pyrrolo[2,3-b]pyridin-1-yl]benzoic acid]",< 1 µM,< 1 µM,,
"Cc1noc(C)c1-c1ccc2c(-c3ccc(C(=O)O)c(Cl)c3)cn(C(c3ccccc3)c3ccccn3)c2c1 (stereo not drawn) [P-1047, 2-chloro-4-[6-(3,5-dimethylisoxazol-4-yl)-1-[phenyl(2-pyridyl)methyl]indol-3-yl]benzoic acid]",< 1 µM,< 1 µM,,
"Cc1noc(C)c1-c1ccc2c(-c3cnn(CC(F)(F)F)c3)cn(C(c3ccccc3)c3ccccn3)c2c1 (stereo not drawn) [P-1046, 3,5-dimethyl-4-[1-[phenyl(2-pyridyl)methyl]-3-[1-(2,2,2-trifluoroethyl)pyrazol-4-yl]indol-6-yl]isoxazole]",< 1 µM,< 1 µM,,
"Cc1noc(C)c1-c1cnc2c(-c3ccc(C4(C(=O)O)CC4)cc3)cn(C(c3ccccn3)C3CCCC3)c2c1 (stereo not drawn) [P-1049, 1-[4-[1-[cyclopentyl(2-pyridyl)methyl]-6-(3,5-dimethylisoxazol-4-yl)pyrrolo[3,2-b]pyridin-3-yl]phenyl]cyclopropanecarboxylic acid]",< 1 µM,< 1 µM,,
"Cc1noc(C)c1-c1cnc2c(-c3ccc(C(=O)O)cc3)cn([C@@H](c3ccccn3)C3CC3)c2c1 [P-0987, 4-[1-[(R)-cyclopropyl(2-pyridyl)methyl]-6-(3,5-dimethylisoxazol-4-yl)pyrrolo[3,2-b]pyridin-3-yl]benzoic acid]",< 1 µM,< 1 µM,,
"Cc1noc(C)c1-c1cnc2c(-c3ccc(C4(C(=O)O)CC4)cc3)cn([C@@H](C)c3ccccn3)c2c1 [P-0955, 1-[4-[6-(3,5-dimethylisoxazol-4-yl)-1-[(1S)-1-(2-pyridyl)ethyl]pyrrolo[3,2-b]pyridin-3-yl]phenyl]cyclopropanecarboxylic acid]",< 1 µM,< 1 µM,,
"COC(=O)c1ccc(-c2cn(Cc3ccccn3)c3cc(-c4c(C)noc4C)cnc23)cc1OC [P-0954, methyl 4-[6-(3,5-dimethylisoxazol-4-yl)-1-(2-pyridylmethyl)pyrrolo[3,2-b]pyridin-3-yl]-2-methoxy-benzoate]",,< 1 µM,,
[2H]c1c([2H])c([2H])c(C([2H])(n2cc(-c3cnn(CC(F)(F)F)c3)c3ncc(-c4c(C)noc4C)cc32)C([2H])([2H])[2H])c([2H])c1[2H] (stereo not drawn) [P-0606],< 1 µM,,,< 10 µM
"[2H]C([2H])(C1CCC(F)(F)CC1)n1cc(-c2cnn(CC(F)(F)F)c2)c2ncc(-c3c(C)noc3C)cc21 [P-0221, 4-[1-[dideuterio-(4,4-difluorocyclohexyl)methyl]-3-[1-(2,2,2-trifluoroethyl)pyrazol-4-yl]pyrrolo[3,2-b]pyridin-6-yl]-3,5-dimethyl-isoxazole]",,,< 1 µM,< 10 µM
